PMC9814642 (2021)

How the values were obtained:
[1] = system: ds-DNA (HT with complementary sequence) (DNA, duplex) AGGGTTAGGGTTAGGGTTAGGG/CCCTAACCCTAACCCTAACCCT; assay: time-resolved luminescence at 620 nm; details: 100 mM NaCl; 10 mM Tris-HCl pH 7.5; lifetimes 492 and 88.1 ns
[2] = system: Oxyticha nova G-quadruplex (DNA, G4) GGGGTTTTGGGG; assay: CD melting; details: 100 mM NaCl; 10 mM Tris-HCl pH 7.5; no change of Tm 59.2 °C; binds by end-stacking
[3] = system: Oxyticha nova G-quadruplex (DNA, G4) GGGGTTTTGGGG; assay: UV-vis absorption titration; details: 100 mM NaCl; 10 mM Tris-HCl pH 7.5, 25 °C; fit with [DNA] in base pairs, binding size s = 1; per base
[4] = system: HT8 (DNA, G4) AGGGTTATGGTTAGGGTTAGGG; assay: time-resolved luminescence at 620 nm; details: 100 mM NaCl; 10 mM Tris-HCl pH 7.5; lifetimes 1046 and 151.2 ns
[5] = system: HT10 (DNA, G4) AGGGTTAGGTTTAGGGTTAGGG; assay: time-resolved luminescence at 620 nm; details: 100 mM NaCl; 10 mM Tris-HCl pH 7.5; lifetimes 430.7 and 61.4 ns
[6] = system: HT G-quadruplex (DNA, G4) AGGGTTAGGGTTAGGGTTAGGG; assay: CD melting at 295 nm; details: 100 mM NaCl; 10 mM Tris-HCl pH 7.5; derived from two Tm (56.6, 61.0); highest compound concentration, ratio only in Figure 2D
[7] = system: HT G-quadruplex (DNA, G4) AGGGTTAGGGTTAGGGTTAGGG; assay: UV-vis absorption titration; details: 100 mM NaCl; 10 mM Tris-HCl pH 7.5, 25 °C; fit with [DNA] in base pairs, binding size s = 2.3; per base

## [Ru+2].c1ccc2nc3c4cccnc4c4ncccc4c3nc2c1.c1cnc2c(c1)ccc1cccnc12.c1cnc2c(c1)ccc1cccnc12
[1]
  binding: yes
[2]
  ΔTm: 0 °C
[3]
  K: 990000 M⁻¹
[4]
  binding: yes
[5]
  binding: yes
[6]
  ΔTm: 4.4 °C
[7]
  K: 5.1e+06 M⁻¹
